Assay [1] concerns the target T1, CCR3 receptor (UniProt P51677).
T1 sequence (P51677 1-355): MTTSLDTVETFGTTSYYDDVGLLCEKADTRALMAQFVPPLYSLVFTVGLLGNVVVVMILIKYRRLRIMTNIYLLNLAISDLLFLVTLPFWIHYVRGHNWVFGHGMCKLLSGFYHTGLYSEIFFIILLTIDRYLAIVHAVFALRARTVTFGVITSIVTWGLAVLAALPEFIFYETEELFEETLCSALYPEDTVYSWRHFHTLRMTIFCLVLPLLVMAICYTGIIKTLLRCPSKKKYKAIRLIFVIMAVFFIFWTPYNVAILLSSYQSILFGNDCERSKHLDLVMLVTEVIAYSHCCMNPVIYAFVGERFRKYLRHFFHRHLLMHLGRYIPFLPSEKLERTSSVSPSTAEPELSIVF
Briefly: CCR3 Receptor Binding Assay ([125I]-labeled human eotaxin/CCL11 displacement on cells). To be noted: 0.1 nM [125I]-labeled human eotaxin/CCL11, 60 min at room temperature. The method, then: Cells were washed once with PBS and resuspended in a binding buffer (25 mM HEPES pH 7.6, 5 mM MgCl2, 1 mM CaCl2, 0.5% BSA, 0.1% NaN3). […] of cell suspension (2×10^5 cells/well) and 0.1 nM [^125I]-labeled human eotaxin/CCL11 (2000 Ci/mmol specific activity) were mixed in a 96-well U-bottom polypropylene plate, and incubated for 60 min at room temperature for the binding reaction. The cell suspension was then transferred to a filtration plate (#MAFB, Millipore), and washed 3 times with the binding buffer containing 0.5 M NaCl, scintillant added, and the radioactivity was counted on a TopCount (Packard). For the determination of non-specific binding, the cell suspension and [^125I]-labeled human eotaxin/CCL11 were incubated in the presence of 500 nM of unlabeled human eotaxin/CCL11. See, lino et al., “Molecular cloning and functional characterization of cynomolgus monkey (Macaca fascicularis) CC chemokine receptor, CCR3,” Cytokine 2002, 19, 276-286.
The biological results are summarized in Table 1, wherein A represents a value no greater than 50 nM, and B represents a value greater than 50 nM but no greater than 500 nM, C represents a value greater than 500 nM but no greater than 5 μM; and D represents a value greater than 5 μM.

Assay [2] concerns the target T2, hERG channel (Homo sapiens, UniProt Q12809).
T2 construct: purchased Perkin Elmer RBHERGM400UA; host or cells: HEK-293 cells transfected with hERG (membrane preparation)
Description: hERG Receptor Binding Assay (125I-BeKm-1, membranes from HEK-293 cells containing transfected hERG channels). To be noted: 125I-BeKm-1 0.1 nM final, 1 hr at room temperature. Here is the method: Medium throughput screening of compounds for interaction with the human Ether-a-go-go related gene (hERG) was performed by modification of equilibrium dissociation assays using 125I-labelled peptide BeKm-1. BeKm-1, a scorpion toxin from the Central Asian scorpion Buthus eupeus, selectively blocks the hERG channel. Angelo, K., et al., 2003, Pflugers Arch.-Eur. J. Physiol., 447: 55-63; Chiu, P J S, et al., J. Pharmacol. Sci., 2004, 95: 311-319. Isolated membrane preparations from HEK-293 cells containing transfected hERG channels (hERG K+ Channel Membrane Target Systems™; Cat #, RBHERGM400UA) (Perkin Elmer, Boston, Mass.) were suspended in assay buffer A at a final concentration of 1:150 v/v. Compounds for screening, and non-radiolabelled BeKm-1, as well as 125I-BeKm-1 radioligand (Perkin Elmer; Cat #, NEX-412; Specific Activity 2,200 Ci/mmol), were also reconstituted in Buffer A. Assay components were incubated in 96-well, round-bottom polypropylene plates in the following ratio:
25 μl compound at appropriate concentrations
25 μl radiolabelled BeKm-1 at 0.8 nM (final concentration of 0.1 nM)
150 μl membrane preparation
The assay was incubated with shaking for 1 hr at room temperature. Subsequently, the well contents were transferred to 96-well filtration plates (GF/C multiwell plates (MultiScreen™ HTS; Millipore, 290 Concord Road, Billerica, Mass. 01821 USA; Cat# MSFBN6B-XX pre-soaked in 0.3% polyethyleneimine; Acros Organics, NJ; Cat#178571000). Unbound radioactivity was removed and the membranes washed 4 times with ice-cold Buffer B, under vacuum. Plates were air-dried and bound radioactivity counted on a Packard Top-Count NXT™ microplate scintillation and luminescence counter (Packard Instrument Co., Downers Grove, Ill.). Equilibrium dissociation was analyzed and IC50 and/or Ki values were calculated using GraphPad Prism 4™ software (GraphPad Software, San Diego, Calif.).
Assay Buffer A: ([…] (MP Biomedicals, LLC; 29525 Fountain Parkway, Solon Ohio, 441389; Cat #1688449) in water, pH 7.2 with 1M Tris (Fisher Chemicals, Fair Lawn, N.J. 07410; Cat #, BP-1757-500); 100 μM KCl (Fisher Chemicals, Cat #, BP-366-500); 0.1% BSA (Sigma Aldrich, 3050 Spruce Street, St. Louis, Mo. 63103; Cat #, A3059). Assay Buffer B: 20 mM Tris HCl, pH 7.3; 150 mM NaCl (Fisher Chemicals; Cat #, S78449).
The hERG binding assay results are summarized in Table 2, wherein A represents no measured activity (i.e., a value greater than 100 μM), and B represents a value greater than 10 μM but less than 100 μM and C represents a value less than 10 μM.

T2 sequence (Q12809 whole entry): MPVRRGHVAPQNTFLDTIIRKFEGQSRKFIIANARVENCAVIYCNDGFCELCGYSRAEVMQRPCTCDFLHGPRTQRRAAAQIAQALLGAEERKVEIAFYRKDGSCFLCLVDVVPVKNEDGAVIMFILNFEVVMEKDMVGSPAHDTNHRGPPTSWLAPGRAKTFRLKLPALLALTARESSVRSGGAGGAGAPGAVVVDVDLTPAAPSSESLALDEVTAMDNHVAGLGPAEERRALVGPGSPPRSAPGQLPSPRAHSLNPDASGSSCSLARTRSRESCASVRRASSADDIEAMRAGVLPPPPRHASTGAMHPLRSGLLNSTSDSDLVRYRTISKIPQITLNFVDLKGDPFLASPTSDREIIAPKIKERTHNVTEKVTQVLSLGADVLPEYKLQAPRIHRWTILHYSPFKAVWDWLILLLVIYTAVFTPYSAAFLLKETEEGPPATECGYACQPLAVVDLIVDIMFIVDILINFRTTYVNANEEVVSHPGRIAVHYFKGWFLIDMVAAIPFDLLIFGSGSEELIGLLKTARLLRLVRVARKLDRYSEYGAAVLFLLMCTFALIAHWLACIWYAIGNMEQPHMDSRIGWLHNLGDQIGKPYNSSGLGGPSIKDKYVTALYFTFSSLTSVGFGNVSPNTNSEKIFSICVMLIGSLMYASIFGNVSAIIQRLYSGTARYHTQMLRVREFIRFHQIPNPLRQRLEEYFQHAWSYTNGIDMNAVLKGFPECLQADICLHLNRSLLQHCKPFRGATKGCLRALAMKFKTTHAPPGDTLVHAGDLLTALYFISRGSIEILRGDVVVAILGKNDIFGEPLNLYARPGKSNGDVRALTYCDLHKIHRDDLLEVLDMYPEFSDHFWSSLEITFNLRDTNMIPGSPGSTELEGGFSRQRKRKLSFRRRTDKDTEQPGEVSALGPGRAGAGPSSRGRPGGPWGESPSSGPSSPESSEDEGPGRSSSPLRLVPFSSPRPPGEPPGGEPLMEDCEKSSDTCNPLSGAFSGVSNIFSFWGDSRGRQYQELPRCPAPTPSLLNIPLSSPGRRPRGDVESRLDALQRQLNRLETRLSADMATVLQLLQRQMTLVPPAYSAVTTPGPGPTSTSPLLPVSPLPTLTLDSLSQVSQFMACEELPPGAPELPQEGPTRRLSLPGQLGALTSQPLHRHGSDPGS

In assay [1], `CC(C)(C)OC(=O)N1CCC(NS(=O)(=O)c2cc(C#N)ccc2Sc2cc(Cl)cc(Cl)c2)CC1` [Compound 45] returned a Ki of 0.5 to 5 µM. Take `CC(C)NC(=S)NC1CCN(S(=O)(=O)c2cc(C#N)ccc2Oc2cc(Cl)cc(Cl)c2)CC1` [Compound 17, 1-(1-(5-cyano-2-(3,5-dichlorophenoxy)phenylsulfonyl)piperidin-4-yl)-3-isopropylthiourea]: the inhibition constant (Ki) in assay [2] is above 100 µM. As for `Cc1cc(C)cc(Oc2ccc(C#N)cc2S(=O)(=O)NC2CCN(S(C)(=O)=O)CC2)c1` [Compound 37], the Ki in assay [1] was above 5 µM.

As to `CC(=O)NC1CCN(S(=O)(=O)c2cc(C#N)ccc2Oc2cc(Cl)cc(Cl)c2)CC1` [Compound 5, N-(1-(5-cyano-2-(3,5-dichlorophenoxy)phenylsulfonyl)piperidin-4-yl)acetamide], in assay [2], the inhibition constant (Ki) was above 100 µM. For the compound `Cc1ccc(S(=O)(=O)N2CCC(NS(=O)(=O)c3cc(C#N)ccc3Oc3cc(C)cc(C)c3)CC2)cc1` [Compound 31, 5-cyano-2-(3,5-dimethylphenoxy)-N-(1-tosylpiperidin-4-yl)benzenesulfonamide], in assay [1], the Ki is above 5 µM. In turn, `N#Cc1ccc(Oc2cc(Cl)cc(Cl)c2)c(S(=O)(=O)N2CCC(NC(=O)NCCN3CCSCC3)CC2)c1` [Compound 47, 1-(1-(5-cyano-2-(3,5-dichlorophenoxy)phenylsulfonyl)piperidin-4-yl)-3-(2-thiomorpholinoethyl)urea] registered a Ki in assay [1] of at most 0.05 µM. On to `N#Cc1ccc(Oc2cc(Cl)cc(Cl)c2)c(S(=O)(=O)NC2CCN(C(=O)Nc3cccc(F)c3)CC2)c1` [Compound 44], for which the Ki in assay [1] is 0.05 to 0.5 µM.

`N#Cc1ccc(Oc2cc(Cl)cc(Cl)c2)c(S(=O)(=O)NC2CCN(S(=O)(=O)c3cccc(F)c3)CC2)c1` [Compound 32, 5-cyano-2-(3,5-dichlorophenoxy)-N-(1-(3-fluorophenylsulfonyl)piperidin-4-yl)benzenesulfonamide] showed a Ki in assay [1] above 5 µM.

Turning to `CC(C)C(=O)N1CCC(NS(=O)(=O)c2cc(C#N)ccc2Oc2cc(Cl)cc(Cl)c2)CC1` [Compound 39], the Ki in assay [1] was above 5 µM.

In assay [1], `[2H]c1c([2H])c(Oc2cc(Cl)cc(Cl)c2)c(S(=O)(=O)N2CCC(NC(=O)NCCN3C([2H])([2H])C([2H])([2H])OC([2H])([2H])C3([2H])[2H])CC2)c([2H])c1C#N` [Compound 54, 1-(1-(5-cyano-3,4,6-trideutero-2-(3,5-dichlorophenoxy)phenylsulfonyl)piperidin-4-yl)-3-(2-(2,2,3,3,5,5,6,6-octadeutero-morpholino)ethyl)urea] displayed a Ki of at most 0.05 µM. Take `C=CCNC(=O)NC1CCN(S(=O)(=O)c2cc(C#N)ccc2Oc2cc(Cl)cc(Cl)c2)CC1` [Compound 13, 1-allyl-3-(1-(5-cyano-2-(3,5-dichlorophenoxy)phenylsulfonyl)piperidin-4-yl)urea]: the Ki in assay [2] was above 100 µM. Consider `N#Cc1ccc(Oc2cc(Cl)cc(Cl)c2)c(S(=O)(=O)NC2CCN(C(=O)c3ccc(C(F)(F)F)cc3)CC2)c1` [Compound 34], for which the Ki in assay [1] is above 5 µM.

The compound `N#Cc1ccc(Oc2cc(Cl)cc(Cl)c2)c(S(=O)(=O)N2CCC(NC(=O)NCCN3CCOCC3)CC2)c1` [Compound 22, 1-(1-(5-cyano-2-(3,5-dichlorophenoxy)phenylsulfonyl)piperidin-4-yl)-3-(2-morpholinoethyl)urea] returned a Ki in assay [1] of at most 0.05 µM.

Compound `CN1CCN(CCNC(=O)NC2CCN(S(=O)(=O)c3cc(C#N)ccc3Oc3cc(Cl)cc(Cl)c3)CC2)CC1` [Compound 51, 1-(1-(5-cyano-2-(3,5-dichlorophenoxy)phenylsulfonyl)piperidin-4-yl)-3-(2-(4-methylpiperazin-1-yl)ethyl)urea] displayed a Ki in assay [1] of at most 0.05 µM.

The compound `N#Cc1ccc(Oc2cc(Cl)cc(Cl)c2)c(S(=O)(=O)N2CCC(NC(=O)NCCN3CCC(F)CC3)CC2)c1` [Compound 50, 1-(1-(5-cyano-2-(3,5-dichlorophenoxy)phenylsulfonyl)piperidin-4-yl)-3-(2-(4-fluoropiperidin-1-yl)ethyl)urea] yielded an inhibitory constant (Ki) in assay [1] of at most 0.05 µM. `[2H]c1c([2H])c(Oc2cc(Cl)cc(Cl)c2)c(S(=O)(=O)N2CCC(NC(=O)NCC=C)CC2)c([2H])c1C#N` [Compound 53, 1-allyl-3-(1-(5-cyano-3,4,6-trideutero-2-(3,5-dichlorophenoxy)phenylsulfonyl)piperidin-4-yl)urea] displayed a Ki in assay [1] of at most 0.05 µM. Compound `CC(C)NC(=O)NC1CCN(S(=O)(=O)c2cc(C#N)ccc2Oc2cc(Cl)cc(Cl)c2)CC1` [Compound 12, 1-(1-(5-cyano-2-(3,5-dichlorophenoxy)phenylsulfonyl)piperidin-4-yl)-3-isopropylurea] showed a Ki in assay [2] above 100 µM. `N#Cc1ccc(Oc2cc(Cl)cc(Cl)c2)c(S(=O)(=O)N2CCC(NC(=O)NCc3ccco3)CC2)c1` [Compound 16, 1-(1-(5-cyano-2-(3,5-dichlorophenoxy)phenylsulfonyl)piperidin-4-yl)-3-(furan-2-ylmethyl)urea]: the Ki in assay [2] is above 100 µM. In assay [2], `CSCCCNC(=S)NC1CCN(S(=O)(=O)c2cc(C#N)ccc2Oc2cc(Cl)cc(Cl)c2)CC1` [Compound 18, 1-(1-(5-cyano-2-(3,5-dichlorophenoxy)phenylsulfonyl)piperidin-4-yl)-3-(3-(methylthio)propyl)thiourea] came in with a Ki above 100 µM.

Regarding `Cc1ccc(C(=O)NC2CCN(S(=O)(=O)c3cc(C#N)ccc3Oc3cc(Cl)cc(Cl)c3)CC2)cc1` [Compound 10, N-(1-(5-cyano-2-(3,5-dichlorophenoxy)phenylsulfonyl)piperidin-4-yl)-4-methylbenzamide], in assay [2], the Ki is above 100 µM. For `N#Cc1ccc(Oc2cc(Cl)cc(Cl)c2)c(S(=O)(=O)N2CCC(NC(=O)NCCN3CCCCC3)CC2)c1` [Compound 48, 1-(1-(5-cyano-2-(3,5-dichlorophenoxy)phenylsulfonyl)piperidin-4-yl)-3-(2-(piperidin-1-yl)ethyl)urea], the Ki in assay [1] was at most 0.05 µM. `N#Cc1ccc(Oc2cc(Cl)cc(Cl)c2)c(S(=O)(=O)N2CCC(NC(=O)c3cccc(F)c3)CC2)c1` [Compound 11, N-(1-(5-cyano-2-(3,5-dichlorophenoxy)phenylsulfonyl)piperidin-4-yl)-3-fluorobenzamide] had a Ki in assay [2] above 100 µM. `N#Cc1ccc(Oc2cc(Cl)cc(Cl)c2)c(S(=O)(=O)NC2CCN(C(=O)c3ccccc3)CC2)c1` [Compound 35]: in assay [1], the inhibitory constant (Ki) was above 5 µM. Turning to `N#Cc1ccc(Oc2cc(Cl)cc(Cl)c2)c(S(=O)(=O)N2CCC(NC(=O)NCCN3CCNCC3)CC2)c1` [Compound 49, 1-(1-(5-cyano-2-(3,5-dichlorophenoxy)phenylsulfonyl)piperidin-4-yl)-3-(2-(piperazin-1-yl)ethyl)urea], the Ki in assay [1] is at most 0.05 µM.

The compound `Cc1cc(C)cc(Sc2ccc(C#N)cc2S(=O)(=O)NC2CCN(C(=O)OC(C)(C)C)CC2)c1` [Compound 23] yielded a Ki in assay [1] of 0.5 to 5 µM.

For the origin of these results see patent US8741894B2, “Arylsulfonamide CCR3 antagonists” (Axikin Pharmaceuticals, Inc., priority 2010, dated 2014).
